# Read-outs that look alike come from different tables or passages of the source.
# How the values were obtained:
# [1] = Kinetic solubility (nephelometry); format: physicochemical; conditions: aqueous buffer, kinetic from dmso stock; PBS pH 7.4, 1% DMSO, 1 hour at 37° C., light scattering at 625 nm
# Experimental: Concentration (μM) was then calculated by segmental regression. Amiodarone (#A8423 Aldrich) was used as positive control.
# ATF6 = experiment: ERSE ATF6-luciferase reporter assay (thapsigargin-induced ER stress); format: cell-based, human; conditions: Homo sapiens, U2OS, thapsigargin-induced ER stress, U2-OS ATF6 luc reporter cells; for inhibition at 1 µM: 8 h, 8 hr
# [2] = In vitro microsomal stability, rat liver microsomes; format: in vitro ADME; conditions: for microsomal CLint at […], 1 µM / half-life at […], 1 µM / half-life at 1 μM: pH 7.4, rat liver microsomes; for microsomal CLint at […], 1 µM: intrinsic clearance, read-out: Clint @ rLM; for half-life at […], 1 µM / half-life at 1 μM: rat, read-out: T1/2 @ rLM; for Rem. @ rLM (%): remaining fraction after 30 min, 1 μM compound, 0.5 mg/mL rat liver microsomes, 1 mM NADPH
# Experimental: (§1) Compounds were incubated at a final concentration of 1 μM with 0.5 mg/mL human liver microsomes (hLM) (#HMMCPL; Thermo), mouse liver microsomes (mLM) (#MSMCPL; Thermo) or rat liver microsomes (rLM) (#RTMCPL; Thermo) and 1 mM reduced dihydronicotinamide-adenine dinucleotide phosphate (NADPH) (#N1630; Sigma) in 100 mM phosphate buffer (pH 7.4) at 37° C. The reactions were terminated at 0, 5, 15 and 30 min by the addition of cold acetonitrile containing 50 ng/mL propranolol as an internal standard. […] Verapamil hydrochloride (#V4369 Aldrich) was used as a positive control in all studies.
# [3] = In vitro microsomal stability, mouse liver microsomes; format: in vitro ADME; conditions: for half-life at […], 1 µM / half-life at 1 μM: mouse, read-out: T1/2 @ mLM; for half-life at […], 1 µM / microsomal CLint at […], 1 µM / half-life at 1 μM: mouse liver microsomes, pH 7.4; for microsomal CLint at […], 1 µM: intrinsic clearance, read-out: Clint @ mLM; for Rem. @ mLM (%): remaining fraction after 30 min, 1 μM compound, 0.5 mg/mL mouse liver microsomes, 1 mM NADPH
# Experimental: as §1
# [4] = In vitro microsomal stability, human liver microsomes; format: in vitro ADME; conditions: for half-life at 1 μM: human, read-out: T1/2 @ hLM; for half-life at 1 μM / microsomal CLint at […], 1 µM: human liver microsomes, pH 7.4; for microsomal CLint at […], 1 µM: intrinsic clearance, read-out: Clint @ hLM; for Rem. @ hLM (%): remaining fraction after 30 min, 1 μM compound, 0.5 mg/mL human liver microsomes, 1 mM NADPH
# Experimental: as §1
# [5] = 1 μM test compound, read-out: Inh. ATF6-Luc @ 1 μM [%]
# [6] = dose-response 30 μM to 1 nM, read-out: IC50 ATF6-Luc reporter
solubility kinetic at 1 h [1] [µM],IC50 (ATF6; [6]) [µM],"microsomal CLint at […], 1 µM [2] [µL/min/mg]",Rem. @ rLM (%) [2] [%],"half-life at […], 1 µM [3] [min]","microsomal CLint at […], 1 µM [3] [µL/min/mg]",Rem. @ mLM (%) [3] [%],half-life at 1 μM [4] [min],"microsomal CLint at […], 1 µM [4] [µL/min/mg]",Rem. @ hLM (%) [4] [%],half-life at 1 μM [2] [min],"IC50 (ATF6; read-out: IC50 ATF6-Luc reporter [μM], dose-response 30 μM to 1 nM) [µM]",half-life at 1 μM [3] [min],Compound,inhibition at 1 µM (ATF6; [5]) [%],"half-life at […], 1 µM [2] [min]","inhibition at 1 µM (ATF6; read-out: Inh. ATF6-Luc @ 1 μM [%], 1 μM test compound) [%]"
9.37,> 10,,,,,,,,,,,,"O=C(Nc1cnn(C2CCc3ccccc32)c1)c1cc(-c2ccco2)on1 (stereo not shown) [Compound 19, N-(1-(2,3-dihydro-1H-inden-1-yl)-1H-pyrazol-4-yl)-5-(furan-2-yl) isoxazole-3-carboxamide]",< 25,,
4.68,,33.4,51.4,19.1,72.6,34.3,38.2,36.2,53.3,41.5,< 1,,"Cc1nn([C@@H](C)c2ccc(C(F)(F)F)cc2C(F)(F)F)cc1NC(=O)c1cc(-c2ccccn2)on1 [Compound 100, (S)—N-(1-(1-(2,4-bis(trifluoromethyl)phenyl)ethyl)-3-methyl-1H-pyrazol-4-yl)-5-(pyridin-2-yl)isoxazole-3-carboxamide]",,,> 50
2.34,< 1,28.2,60.62,,37.7,51.17,36,38.5,52.49,49.1,,36.7,"C[C@H](c1ccc(C(F)(F)F)cc1C(F)(F)F)n1cc(NC(=O)c2cc(-c3ncccn3)on2)cn1 [Compound 101, (R)—N-(1-(1-(2,4-bis(trifluoromethyl)phenyl)ethyl)-1H-pyrazol-4-yl)-5-(pyrimidin-2-yl)isoxazole-3-carboxamide]",> 50,,
2.92,1 to 10,23.6,64.4,,52.2,44.5,53.6,25.9,59.3,58.7,,26.6,"Cc1c(NC(=O)c2cc(-c3ccccn3)on2)cnn1[C@H](C)c1ccc(C(F)(F)F)cc1C(F)(F)F [Compound 97, (R)—N-(1-(1-(2,4-bis(trifluoromethyl)phenyl)ethyl)-5-methyl-1H-pyrazol-4-yl)-5-(pyridin-2-yl)isoxazole-3-carboxamide]",25 to 50,,
8.9,1 to 10,,,,,,,,,,,,"CC(c1ccc(C(F)(F)F)cc1C(F)(F)F)n1cc(NC(=O)c2cc(-c3cccs3)on2)cn1 (stereo not shown) [Compound 9, N-(1-(1-(2,4-bis(trifluoromethyl)phenyl)-ethyl)-1H-pyrazol-4-yl)-5-(thiophen-2-yl)isoxazole-3-carboxamide]",< 25,,
,1 to 10,204,4.5,6.1,228,3.3,6.5,212,3.7,,,,"Cc1ccc(-c2cc(C(=O)Nc3cnn(Cc4ccc(C(F)(F)F)cc4C(F)(F)F)c3)no2)o1 [Compound 22, N-(1-(2,4-bis(trifluoromethyl)benzyl)-1H-pyrazol-4-yl)-5-(5-methylfuran-2-yl)isoxazole-3-carboxamide]",< 25,6.8,

Compound,solubility kinetic at 1 h [1] [µM],IC50 (ATF6; [6]) [µM],"microsomal CLint at […], 1 µM [2] [µL/min/mg]",Rem. @ rLM (%) [2] [%],"half-life at […], 1 µM [3] [min]","microsomal CLint at […], 1 µM [3] [µL/min/mg]",Rem. @ mLM (%) [3] [%],half-life at 1 μM [4] [min],"microsomal CLint at […], 1 µM [4] [µL/min/mg]",Rem. @ hLM (%) [4] [%],half-life at 1 μM [2] [min],"IC50 (ATF6; read-out: IC50 ATF6-Luc reporter [μM], dose-response 30 μM to 1 nM) [µM]",half-life at 1 μM [3] [min],inhibition at 1 µM (ATF6; [5]) [%],"half-life at […], 1 µM [2] [min]","inhibition at 1 µM (ATF6; read-out: Inh. ATF6-Luc @ 1 μM [%], 1 μM test compound) [%]"
"CC(c1ccc(C(F)(F)F)cc1C(F)(F)F)n1cc(NC(=O)c2cc(-c3ccco3)on2)cn1 (stereo not shown) [Compound 12, N-(1-{1-[2,4-bis(trifluoromethyl)phenyl]ethyl}-1H-pyrazol-4-yl)-5-(furan-2-yl) isoxazole-3-carboxamide]",,< 1,291,0.77,4.6,302,1.02,29.9,46,46.1,,,,> 50,4.8,

# Source: patent US20240124434A1, “ATF6 INHIBITORS AND USES THEREOF” (Altos Labs, Inc., priority 2018, published 2024)
